The values that follow come from ChEMBL document CHEMBL4732202, “Identification and Profiling of a Novel Diazaspiro[3.4]octane Chemical Series Active against Multiple Stages of the Human Malaria Parasite Plasmodium falciparum and Optimization Efforts” (J Med Chem, 2021).

Data set [1] can be described thus: Half life in rat liver microsomes at 0.1 uM in presence or absence of NADPH by LC-MS/MS analysis. It counts as ADME, Microsome. On the technique in general: Liver microsomes are vesicles of endoplasmic reticulum, rich in cytochrome P450 enzymes.
Data set [2] in a line: Half life in mouse liver microsomes at 0.1 uM in presence or absence of NADPH by LC-MS/MS analysis. It counts as ADME, Microsome.
Data set [3] in a line: Half life in human liver microsomes at 0.1 uM in presence or absence of NADPH by LC-MS/MS analysis. Format: ADME, Microsome.
Data set [4] in a line: Oral bioavailability in Balb/c mouse at 10 mg/kg measured upto 24 hrs by LC-MS/MS analysis. Format: ADME, organism-based. As to conditions: in vivo.
Data set [5] is described as follows: Unbound average drug concentration in Balb/c mouse at 20 mg/kg, po measured upto 24 hrs by LC-MS/MS analysis. It counts as ADME, organism-based. As to conditions: in vivo.
Data set [6] in a line: Intrinsic clearance in Balb/c mouse at 3 mg/kg, iv measured upto 24 hrs by LC-MS/MS analysis. Format: ADME, organism-based. As to conditions: in vivo.
A short description of data set [7]: Blood clearance in Balb/c mouse at 3 mg/kg, iv measured upto 24 hrs by LC-MS/MS analysis. It counts as ADME, organism-based. The conditions noted are these: whole blood.
The nature of data set [8]: Half life in Balb/c mouse at 3 mg/kg, iv measured upto 24 hrs by LC-MS/MS analysis. It counts as ADME, organism-based. The conditions noted are these: in vivo.
A short description of data set [9]: Volume of distribution in Balb/c mouse at 3 mg/kg, iv measured upto 24 hrs by LC-MS/MS analysis. As to conditions: in vivo. Format: ADME, organism-based.
Data set [10] can be described thus: Unbound AUC in Balb/c mouse at 20 mg/kg, po measured upto 24 hrs by LC-MS/MS analysis. It counts as ADME, organism-based. The conditions noted are these: in vivo.
Data set [11] is described as follows: AUC (0 to infinity) in Balb/c mouse at 3 mg/kg, iv measured upto 24 hrs by LC-MS/MS analysis. It counts as ADME, organism-based. Details: route intravenous, dose 3 mg/kg, time <=24. The conditions noted are these: in vivo.

As a reminder, the half-life is how long it takes for the measured level to halve. High values mean slow loss, low ones fast loss. As for `O=C(Cc1ccc(O)c(F)c1)N1CC(CNc2ccc(F)cc2)C2(C1)CN(c1ccc(F)cc1)C2` (racemic), the half-life at 0.1 µM in data set [1] came out at 14 min; in [2], 13 min; in data set [3], 17 min.

Take `N[C@@H](C(=O)N1CC(CNc2ccc(F)cc2)C2(C1)CN(c1cc(F)cc(F)c1)C2)c1ccc(O)cc1` (mixture of isomers): the half-life at 0.1 µM is 44 min in [1], 48 min in data set [2] and 25 min in data set [3].

For `O=C(Cc1ccnc(O)c1)N1CC(CNc2ccc(F)cc2)C2(C1)CN(c1cc(F)cc(F)c1)C2` (racemic), the half-life at 0.1 µM was 20 min in data set [1], 17 min in data set [2] and 12 min in [3].

For the compound `O=C(Cc1ccc(O)c(Cl)c1)N1CC(CNc2ccc(F)cc2)C2(C1)CN(c1ccc(F)cc1)C2` (racemic), the half-life at 0.1 µM in [1] amounted to 25 min; in data set [2], 16 min; in [3], 22 min.

With `O=C(CN1CCC(O)CC1)N1CC(CNc2ccc(F)cc2)C2(C1)CN(c1ccc(F)cc1)C2` (racemic), the half-life at 0.1 µM in data set [1], in data set [2] and in data set [3] was 150 min throughout.

For the compound `O=C(Cc1cc[n+]([O-])cc1)N1CC(CNc2ccc(F)cc2)C2(C1)CN(c1cc(F)cc(F)c1)C2` (racemic), the half-life at 0.1 µM in data set [1], in data set [2] and in data set [3] was 150 min throughout.

With `N#Cc1cc(CC(=O)N2CC(CNc3ccc(F)cc3)C3(C2)CN(c2cc(F)cc(F)c2)C3)ccc1O` (racemic), the half-life at 0.1 µM in data set [1] came to 31 min; in data set [2], 70 min; in data set [3], 27 min.

Take `NC(=O)c1cc(CC(=O)N2CC(CNc3ccc(F)cc3)C3(C2)CN(c2cc(F)cc(F)c2)C3)ccc1O` (racemic): the figures for the half-life at 0.1 µM in [1], in data set [2] and in [3] were 8 min, 21 min and 11 min, respectively.

Turning to `N[C@H](Cc1ccc(O)cc1)C(=O)N1CC(CNc2ccc(F)cc2)C2(C1)CN(c1cc(F)cc(F)c1)C2` (mixture of isomers), the half-life at 0.1 µM in data set [1] was 24 min; in [2], 20 min; in [3], 34 min.

`O=C(Cc1ccc(O)cn1)N1CC(CNc2ccc(F)cc2)C2(C1)CN(c1cc(F)cc(F)c1)C2` (racemic): the half-life at 0.1 µM turned out to be 12 min in data set [1], 11 min in [2] and 12 min in data set [3].

Take `O=C([C@H](O)c1ccc(O)cc1)N1CC(CNc2ccc(F)cc2)C2(C1)CN(c1cc(F)cc(F)c1)C2` (mixture of isomers): the half-life at 0.1 µM in data set [1] came to 7.9 min; in [2] it was 4.4 min; in data set [3] it was 6.8 min.

As a reminder, the bioavailability is dose-corrected exposure relative to a reference, in per cent. A high value points to good availability. A word on the clearance: it is the volume of plasma or blood freed of the substance per unit of time. Read a high clearance as a high capacity for elimination. Usually Vd stands for a proportionality between amount in the body and measured concentration, not a real space. A high value points to extensive tissue distribution. As usually defined, the AUC(0-inf) is the area under the concentration-time curve extrapolated to infinity. A lower AUC(0-inf) goes with low exposure. With `N[C@H](C(=O)N1CC(CNc2ccc(F)cc2)C2(C1)CN(c1cc(F)cc(F)c1)C2)c1ccc(O)cc1` (mixture of isomers; form 1), the half-life at 0.1 µM in data set [1], in data set [2] and in data set [3] was 150 min each time. The bioavailability in data set [4] was less than 1%. For the same compound, in data set [5], the “f(Cave)” value amounted to 2 nM. In data set [6], this compound registered a CL of 2155 mL/min/kg. In addition, the clearance in [7] was 33.7 mL/min/kg. This compound also gave a half-life in data set [8] of 480 min. Moreover, in data set [9], the Vd was found to be 23.5 L/kg. The compound further returned a fAUC in data set [10] of 3 µmol·min/L. In [11], this compound showed an AUC(0-inf) of 3 µM·h.

For `O=C(Cc1cc(F)c(O)c(F)c1)N1CC(CNc2ccc(F)cc2)C2(C1)CN(c1ccc(F)cc1)C2` (racemic), the figures for the half-life at 0.1 µM in [1], in data set [2] and in data set [3] were 40 min, 42 min and 46 min, respectively.

Turning to `C[C@@H](C(=O)N1CC(CNc2ccc(F)cc2)C2(C1)CN(c1cc(F)cc(F)c1)C2)c1ccc(O)cc1` (mixture of isomers), the half-life at 0.1 µM is 6 min in [1], 7 min in data set [2] and 6 min in data set [3].

Regarding `O=C(Cc1ccc(O)c(C(F)(F)F)c1)N1CC(CNc2ccc(F)cc2)C2(C1)CN(c1cc(F)cc(F)c1)C2` (racemic), the half-life at 0.1 µM in [1] amounted to 16 min; in data set [2] it was 24 min; in data set [3], 15 min.

Consider `O=C(Cc1ccc(O)cc1)N1CC(CNc2ccccc2)C2(C1)CN(c1ccc(F)cc1)C2` (stereo not drawn), for which, in data set [4], the bioavailability amounted to 10%. In data set [5], the “f(Cave)” value is recorded as 2 nM. This compound also returned a CL in data set [6] of 5042 mL/min/kg. The compound further returned a clearance in [7] of 63 mL/min/kg. Further, in data set [8], the half-life is 240 min. This compound also gave a Vd in data set [9] of 22 L/kg. This compound had a fAUC in data set [10] of 3 µmol·min/L. Besides, in data set [11], the AUC(0-inf) was 1.82 µM·h.

Take `O=C(N1CC(CNc2ccc(F)cc2)C2(C1)CN(c1cc(F)cc(F)c1)C2)C(F)(F)c1ccc(O)cc1` (racemic): the half-life at 0.1 µM was determined as 11 min in [1], 12 min in [2] and 23 min in data set [3].

Consider `O=C([C@@H](O)c1ccc(O)cc1)N1CC(CNc2ccc(F)cc2)C2(C1)CN(c1cc(F)cc(F)c1)C2` (mixture of isomers), for which the half-life at 0.1 µM was determined as 6.7 min in data set [1], 11 min in data set [2] and 9 min in [3].

As for `O=C(Cc1ccc(C(F)F)cc1)N1CC(CNc2ccc(F)cc2)C2(C1)CN(c1ccc(F)cc1)C2` (racemic), the values for the half-life at 0.1 µM in [1], in data set [2] and in data set [3] were 7.6 min, 6.6 min and 7.6 min, respectively.

Turning to `CC1(C)c2nc(-c3ccc(F)cc3)c(Nc3ccc(F)cc3)n2CCN1C(=O)CN` [GANAPLACIDE], in data set [4], the bioavailability amounted to 74%. In addition, the “f(Cave)” value in data set [5] is on record as 45 nM. Besides, in data set [6], the CL worked out at 548 mL/min/kg. Also, the clearance in data set [7] was 37.8 mL/min/kg. For the same compound, in data set [10], the fAUC is 65.4 µmol·min/L.

Consider `O=C(Cc1ncc(O)cn1)N1CC(CNc2ccc(F)cc2)C2(C1)CN(c1cc(F)cc(F)c1)C2` (racemic), for which the half-life at 0.1 µM in [1] is 68 min; in data set [2] it was 67 min; in data set [3], 64 min.

In the case of `O=C(Cc1ccc(O)nc1)N1CC(CNc2ccc(F)cc2)C2(C1)CN(c1cc(F)cc(F)c1)C2` (racemic), the half-life at 0.1 µM in data set [1] amounted to 52 min; in [2], 17 min; in data set [3], 21 min.

For the compound `C[C@H](C(=O)N1CC(CNc2ccc(F)cc2)C2(C1)CN(c1cc(F)cc(F)c1)C2)c1ccc(O)cc1` (mixture of isomers), the results for the half-life at 0.1 µM in data set [1], in [2] and in [3] were 4 min, 10 min and 6 min, respectively.

Turning to `Nc1ccc(C[C@@H](N)C(=O)N2CC(CNc3ccc(F)cc3)C3(C2)CN(c2cc(F)cc(F)c2)C3)cc1` (mixture of isomers), the half-life at 0.1 µM in [1], in data set [2] and in data set [3] was 150 min each time. This compound registered a bioavailability in [4] of 8%. In [5], this compound yielded a Cave of 1 nM. The CL in [6] was determined as 2959 mL/min/kg. Moreover, the clearance in data set [7] is 40.6 mL/min/kg. The same compound showed a half-life in data set [8] of 342 min. In data set [9], this compound came in with a Vd of 20.7 L/kg. The compound further gave a fAUC in data set [10] of 2 µmol·min/L. The AUC(0-inf) in [11] was 2.48 µM·h.

In data set [4], `CS(=O)(=O)c1ccc(-c2cnc(N)c(-c3ccc(C(F)(F)F)nc3)c2)cc1` [MMV-048] came in with a bioavailability of more than 100%. Further, in [5], the “f(Cave)” value came to 3092 nM. The compound further yielded a CL in data set [6] of 19 mL/min/kg. In [7], this compound displayed a clearance of 3 mL/min/kg. The same compound registered a fAUC in data set [10] of 4452 µmol·min/L.

Regarding `O=C(N1CC(CNc2ccc(F)cc2)C2(C1)CN(c1cc(F)cc(F)c1)C2)C(F)(F)c1ccc(O)c(C(F)(F)F)c1` (racemic), the half-life at 0.1 µM in [1] is 7 min; in data set [2] it was 16 min; in data set [3] it was 18 min.
